From article PMC7736581, “Activation of the IRE1 RNase through remodeling of the kinase front pocket by ATP-competitive ligands” (Nature Communications, 2020)

Tests used:
Assay in all cases: biochemical
Parameters in all cases: Invitrogen kinase panel: Z'Lyte activity (ATP at Km) or LanthaScreen competitive ATP-site binding, percent inhibition
[1] = molecular target: T1, IKK_beta (Homo sapiens, UniProt O14920)
T1 construct: gene IKBKB
T1 sequence (O14920 1-756): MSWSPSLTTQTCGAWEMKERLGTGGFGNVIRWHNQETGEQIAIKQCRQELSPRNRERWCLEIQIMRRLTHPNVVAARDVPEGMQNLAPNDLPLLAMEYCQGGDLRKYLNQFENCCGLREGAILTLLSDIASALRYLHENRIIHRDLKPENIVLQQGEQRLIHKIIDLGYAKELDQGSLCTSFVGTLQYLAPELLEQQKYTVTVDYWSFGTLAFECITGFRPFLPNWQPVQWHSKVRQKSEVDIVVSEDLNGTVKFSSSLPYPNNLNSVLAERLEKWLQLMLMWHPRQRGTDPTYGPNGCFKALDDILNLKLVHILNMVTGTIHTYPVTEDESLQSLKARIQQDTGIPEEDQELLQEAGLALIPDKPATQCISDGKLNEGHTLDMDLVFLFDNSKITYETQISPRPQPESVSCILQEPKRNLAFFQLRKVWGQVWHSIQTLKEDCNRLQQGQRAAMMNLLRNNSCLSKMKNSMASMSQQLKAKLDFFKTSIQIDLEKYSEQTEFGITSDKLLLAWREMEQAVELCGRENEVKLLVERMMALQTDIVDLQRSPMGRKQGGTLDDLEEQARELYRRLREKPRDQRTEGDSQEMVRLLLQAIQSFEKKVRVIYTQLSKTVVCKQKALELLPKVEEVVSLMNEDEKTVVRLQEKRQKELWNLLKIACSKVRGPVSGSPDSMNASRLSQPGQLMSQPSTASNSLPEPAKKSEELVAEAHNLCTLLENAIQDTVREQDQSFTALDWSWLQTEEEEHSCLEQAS

[2] = molecular target: T2, ITK (Homo sapiens, UniProt Q08881)
T2 sequence (Q08881 1-620): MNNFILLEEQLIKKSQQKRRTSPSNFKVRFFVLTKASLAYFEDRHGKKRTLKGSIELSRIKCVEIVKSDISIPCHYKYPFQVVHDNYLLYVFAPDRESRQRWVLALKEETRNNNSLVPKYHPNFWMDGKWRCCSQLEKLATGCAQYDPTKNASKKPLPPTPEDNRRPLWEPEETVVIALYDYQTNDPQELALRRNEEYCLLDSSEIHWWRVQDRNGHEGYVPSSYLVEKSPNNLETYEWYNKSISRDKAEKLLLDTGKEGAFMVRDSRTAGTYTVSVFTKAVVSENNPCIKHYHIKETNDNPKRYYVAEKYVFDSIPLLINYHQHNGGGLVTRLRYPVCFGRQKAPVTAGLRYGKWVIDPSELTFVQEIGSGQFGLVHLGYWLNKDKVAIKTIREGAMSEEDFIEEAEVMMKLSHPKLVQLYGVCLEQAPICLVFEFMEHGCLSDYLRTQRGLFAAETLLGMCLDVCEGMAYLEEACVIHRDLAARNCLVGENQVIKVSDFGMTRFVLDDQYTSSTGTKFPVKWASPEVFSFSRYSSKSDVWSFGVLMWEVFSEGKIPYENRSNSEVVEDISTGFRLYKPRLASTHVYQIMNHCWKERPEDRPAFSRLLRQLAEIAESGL

[3] = molecular target: T3, MEK1 (Homo sapiens, UniProt Q02750)
T3 construct: gene MAP2K1
T3 sequence (Q02750 whole entry): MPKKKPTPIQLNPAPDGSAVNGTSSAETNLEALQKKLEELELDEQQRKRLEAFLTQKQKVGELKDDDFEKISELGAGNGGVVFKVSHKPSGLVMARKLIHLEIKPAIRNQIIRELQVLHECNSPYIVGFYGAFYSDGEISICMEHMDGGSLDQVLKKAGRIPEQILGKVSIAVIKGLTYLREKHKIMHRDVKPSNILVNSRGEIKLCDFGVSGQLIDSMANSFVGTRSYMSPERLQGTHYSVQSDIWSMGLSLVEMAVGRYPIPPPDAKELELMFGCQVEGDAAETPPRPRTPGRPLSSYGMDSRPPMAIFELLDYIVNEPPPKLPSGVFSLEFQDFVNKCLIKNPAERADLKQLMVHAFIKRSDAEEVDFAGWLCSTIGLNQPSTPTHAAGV

[4] = molecular target: T4, PKC_beta1 (Homo sapiens, UniProt P05771)
T4 construct: gene PRKCB; isoform beta1
T4 sequence (P05771 whole entry, canonical isoform): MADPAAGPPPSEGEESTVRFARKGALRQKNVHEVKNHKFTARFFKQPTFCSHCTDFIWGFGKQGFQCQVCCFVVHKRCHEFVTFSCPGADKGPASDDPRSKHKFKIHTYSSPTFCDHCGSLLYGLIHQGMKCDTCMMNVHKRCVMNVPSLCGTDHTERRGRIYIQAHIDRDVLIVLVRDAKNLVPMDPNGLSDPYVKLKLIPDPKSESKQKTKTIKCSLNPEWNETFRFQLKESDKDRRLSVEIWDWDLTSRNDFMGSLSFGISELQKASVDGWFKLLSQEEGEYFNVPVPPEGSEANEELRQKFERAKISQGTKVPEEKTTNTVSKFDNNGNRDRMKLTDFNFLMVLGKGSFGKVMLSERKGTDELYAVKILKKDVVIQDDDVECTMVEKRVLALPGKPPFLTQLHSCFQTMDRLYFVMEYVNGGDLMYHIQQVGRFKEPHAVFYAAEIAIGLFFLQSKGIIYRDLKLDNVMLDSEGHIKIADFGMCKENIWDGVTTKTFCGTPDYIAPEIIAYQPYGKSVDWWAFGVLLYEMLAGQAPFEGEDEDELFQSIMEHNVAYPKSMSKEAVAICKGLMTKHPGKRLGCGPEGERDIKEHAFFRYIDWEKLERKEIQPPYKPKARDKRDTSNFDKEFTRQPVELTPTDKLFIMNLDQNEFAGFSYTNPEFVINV

[5] = molecular target: T5, PKD1 (Homo sapiens, UniProt Q15139)
T5 construct: gene PRKD1
T5 sequence (Q15139 1-912): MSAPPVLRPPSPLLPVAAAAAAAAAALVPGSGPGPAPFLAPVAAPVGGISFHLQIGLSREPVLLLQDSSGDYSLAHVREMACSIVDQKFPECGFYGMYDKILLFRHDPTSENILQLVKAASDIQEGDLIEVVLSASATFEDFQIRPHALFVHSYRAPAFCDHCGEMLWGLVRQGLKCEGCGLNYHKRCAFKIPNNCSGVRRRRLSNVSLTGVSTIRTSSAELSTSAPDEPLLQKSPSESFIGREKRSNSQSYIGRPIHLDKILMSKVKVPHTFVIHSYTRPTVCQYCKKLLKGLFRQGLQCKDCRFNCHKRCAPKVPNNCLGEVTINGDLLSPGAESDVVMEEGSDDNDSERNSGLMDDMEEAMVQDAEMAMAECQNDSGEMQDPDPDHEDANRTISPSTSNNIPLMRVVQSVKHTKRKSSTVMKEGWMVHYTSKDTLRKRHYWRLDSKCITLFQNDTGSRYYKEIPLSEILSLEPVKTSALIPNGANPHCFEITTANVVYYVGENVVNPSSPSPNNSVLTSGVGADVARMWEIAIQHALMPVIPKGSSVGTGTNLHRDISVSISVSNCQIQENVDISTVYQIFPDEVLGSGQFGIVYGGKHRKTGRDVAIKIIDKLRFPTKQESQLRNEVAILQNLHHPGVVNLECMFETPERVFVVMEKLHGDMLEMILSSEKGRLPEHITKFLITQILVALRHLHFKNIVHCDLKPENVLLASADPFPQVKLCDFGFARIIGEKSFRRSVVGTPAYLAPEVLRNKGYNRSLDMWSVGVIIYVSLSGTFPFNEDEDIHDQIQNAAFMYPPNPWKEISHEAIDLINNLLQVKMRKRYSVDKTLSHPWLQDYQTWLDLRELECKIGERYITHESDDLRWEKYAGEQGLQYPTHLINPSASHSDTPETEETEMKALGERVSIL

[6] = molecular target: PRKAA1 (Homo sapiens, UniProt Q13131)
Sequence of PRKAA1 (Q13131 whole entry): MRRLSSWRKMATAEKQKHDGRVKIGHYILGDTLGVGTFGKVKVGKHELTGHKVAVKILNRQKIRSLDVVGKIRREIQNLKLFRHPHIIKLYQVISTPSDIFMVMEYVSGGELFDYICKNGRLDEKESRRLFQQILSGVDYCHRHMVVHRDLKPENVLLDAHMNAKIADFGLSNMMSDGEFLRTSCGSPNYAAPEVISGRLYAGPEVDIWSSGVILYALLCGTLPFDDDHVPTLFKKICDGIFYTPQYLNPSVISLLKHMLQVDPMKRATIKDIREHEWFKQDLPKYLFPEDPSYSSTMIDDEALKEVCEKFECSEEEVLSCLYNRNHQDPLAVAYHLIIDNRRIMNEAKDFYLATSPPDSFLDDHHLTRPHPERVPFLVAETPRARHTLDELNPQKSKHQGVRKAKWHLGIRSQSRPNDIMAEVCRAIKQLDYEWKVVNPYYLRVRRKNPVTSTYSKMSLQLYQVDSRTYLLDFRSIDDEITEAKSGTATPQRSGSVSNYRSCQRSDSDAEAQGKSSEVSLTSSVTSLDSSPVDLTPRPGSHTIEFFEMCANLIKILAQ
Sequence of PRKAA1 (P54619 whole entry partner): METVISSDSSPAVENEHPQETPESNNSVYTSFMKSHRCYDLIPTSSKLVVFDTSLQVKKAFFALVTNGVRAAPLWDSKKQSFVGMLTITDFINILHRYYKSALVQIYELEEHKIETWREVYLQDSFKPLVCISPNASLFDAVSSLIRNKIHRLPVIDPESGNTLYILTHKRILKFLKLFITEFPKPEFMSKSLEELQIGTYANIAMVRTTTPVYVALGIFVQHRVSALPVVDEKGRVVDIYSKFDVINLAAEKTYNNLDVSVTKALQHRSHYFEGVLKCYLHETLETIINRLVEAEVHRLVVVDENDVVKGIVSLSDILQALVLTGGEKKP
Sequence of PRKAA1 (Q9Y478 whole entry partner): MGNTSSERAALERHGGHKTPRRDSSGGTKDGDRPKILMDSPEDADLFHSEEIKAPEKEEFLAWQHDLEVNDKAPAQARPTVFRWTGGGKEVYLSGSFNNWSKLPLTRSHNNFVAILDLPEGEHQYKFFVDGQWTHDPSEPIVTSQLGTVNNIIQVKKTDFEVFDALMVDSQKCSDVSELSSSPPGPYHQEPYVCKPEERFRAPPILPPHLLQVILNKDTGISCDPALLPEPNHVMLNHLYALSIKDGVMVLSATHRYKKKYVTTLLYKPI

[7] = molecular target: T6, PhK_gamma1 (Homo sapiens, UniProt Q16816)
T6 construct: gene PHKG1
T6 sequence (Q16816 whole entry): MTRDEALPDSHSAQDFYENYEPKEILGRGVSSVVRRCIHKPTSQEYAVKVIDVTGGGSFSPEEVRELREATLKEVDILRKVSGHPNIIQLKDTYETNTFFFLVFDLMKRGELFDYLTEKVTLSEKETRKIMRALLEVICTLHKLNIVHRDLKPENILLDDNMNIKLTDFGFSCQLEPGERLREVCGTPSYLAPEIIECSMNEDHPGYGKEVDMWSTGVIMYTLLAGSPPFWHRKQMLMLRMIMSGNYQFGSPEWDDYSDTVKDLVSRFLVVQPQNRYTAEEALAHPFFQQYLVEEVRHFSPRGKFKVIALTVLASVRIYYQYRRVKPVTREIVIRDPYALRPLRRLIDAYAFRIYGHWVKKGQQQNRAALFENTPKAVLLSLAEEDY

[8] = molecular target: T7, TrkA (Homo sapiens, UniProt P04629)
T7 construct: gene NTRK1
T7 sequence (P04629 whole entry): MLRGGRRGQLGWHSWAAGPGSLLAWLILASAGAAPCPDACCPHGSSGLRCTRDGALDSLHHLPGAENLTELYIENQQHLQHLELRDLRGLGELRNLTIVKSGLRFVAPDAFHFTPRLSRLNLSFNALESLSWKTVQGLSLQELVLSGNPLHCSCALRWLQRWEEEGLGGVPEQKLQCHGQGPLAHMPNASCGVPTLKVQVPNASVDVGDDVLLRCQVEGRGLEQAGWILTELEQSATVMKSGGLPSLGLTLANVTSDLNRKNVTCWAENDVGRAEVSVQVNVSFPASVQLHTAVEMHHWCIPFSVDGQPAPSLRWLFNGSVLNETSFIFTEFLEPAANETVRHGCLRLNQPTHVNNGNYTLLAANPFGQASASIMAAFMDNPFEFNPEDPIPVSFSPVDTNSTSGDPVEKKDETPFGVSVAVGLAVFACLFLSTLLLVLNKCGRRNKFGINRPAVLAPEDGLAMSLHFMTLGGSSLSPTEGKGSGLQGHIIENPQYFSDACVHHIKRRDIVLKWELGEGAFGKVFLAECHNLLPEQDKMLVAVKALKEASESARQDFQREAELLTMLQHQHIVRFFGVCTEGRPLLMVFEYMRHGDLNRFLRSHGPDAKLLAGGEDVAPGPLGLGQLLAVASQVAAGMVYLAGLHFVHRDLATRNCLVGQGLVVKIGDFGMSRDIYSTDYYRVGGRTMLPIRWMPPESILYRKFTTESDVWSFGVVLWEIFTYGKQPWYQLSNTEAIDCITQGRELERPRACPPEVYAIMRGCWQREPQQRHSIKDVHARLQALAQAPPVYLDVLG

SMILES | inhibition at 1 µM [1] | inhibition at 1 µM [2] | inhibition at 1 µM [3] | inhibition at 1 µM [4] | inhibition at 1 µM [5] | inhibition at 1 µM [6] | inhibition at 1 µM [7] | inhibition at 1 µM [8]
CCOC(=O)Nc1cccc2c(Oc3ncccc3-c3ccnc(N[C@H]4CCCNC4)n3)c(C)ccc12 [G-1749] | -2% | 5% | 2% | 5.5% | 33.5% | 0% | 2% | -4%
CC#CC(=O)Nc1cccc2c(Oc3ncccc3-c3ccnc(N[C@H]4CCCNC4)n3)c(C)ccc12 [G-7658] | 0% | 0% | 0.5% | 5.5% | 31% | 12% | 1% | 10.5%
O=c1cc(-c2n[nH]c3ncc(-c4c(F)cccc4F)cc23)nc(N2CCC(O)CC2)[nH]1 [G-9807] | 80.4% | 81.3% | 95.4% | 66.7% | 97.5% | 96.2% | 92.2% | 91.2%
